The values that follow come from patent US8338465B2, “Cyclic carboxylic acid rhodanine derivatives for the treatment and prevention of tuberculosis” (priority 2006, dated 2012).

Read-outs that look alike come from different tables or passages of the source. Bounds are passed on as bounds.

The assay addresses T1, dihydrolipoamide acyltransferase (DlaT) (Mycobacterium tuberculosis, UniProt P9WIS7).
T1 sequence (P9WIS7 1-553): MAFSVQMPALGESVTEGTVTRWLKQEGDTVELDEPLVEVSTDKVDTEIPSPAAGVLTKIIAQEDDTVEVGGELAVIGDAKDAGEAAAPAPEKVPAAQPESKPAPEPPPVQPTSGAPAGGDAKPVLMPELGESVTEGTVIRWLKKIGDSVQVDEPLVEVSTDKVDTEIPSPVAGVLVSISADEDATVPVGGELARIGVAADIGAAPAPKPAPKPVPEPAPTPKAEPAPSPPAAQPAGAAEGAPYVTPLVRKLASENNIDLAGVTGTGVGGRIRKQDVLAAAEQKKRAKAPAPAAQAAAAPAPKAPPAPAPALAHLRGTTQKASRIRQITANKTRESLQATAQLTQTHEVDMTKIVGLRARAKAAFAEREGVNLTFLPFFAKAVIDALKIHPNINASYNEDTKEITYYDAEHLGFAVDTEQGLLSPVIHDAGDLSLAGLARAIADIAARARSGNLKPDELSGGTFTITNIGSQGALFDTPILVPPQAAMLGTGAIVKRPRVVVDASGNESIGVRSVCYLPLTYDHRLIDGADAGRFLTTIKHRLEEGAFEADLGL
Description: DlaT inhibition (Dlat IC50); DTNB peroxidase assay with Lpd, DlaT and AhpD. Format: biochemical.

Where [1] appears, read: Dlat IC50 category, Table 21, Prodrugs (Examples U1 to U10).
Setting [2] is: Table 1, Compounds A1 to A294, read-out: Dlat IC50 category.

As to `O=C(OCC(CO)CO)c1cccc(N2C(=O)C(=Cc3ccc(-c4ccccc4Cl)o3)SC2=S)c1` [Compound T4, 3-{5-[1-[5-(2-Chloro-phenyl)-furan-2-yl]-methylidene]-4-oxo-2-thioxo-thiazolidin-3-yl}-benzoic acid 3-hydroxy-2-hydroxymethyl-propyl ester], for the setting “Dlat IC50 category, Table 20, Prodrugs (Compounds T1 to T8)”, the concentration for half-maximal inhibition (IC50) (commonly the point on the concentration scale where inhibition reaches its midpoint) lay in the range of 11 to 40 µM. For the molecule `CSc1ccc(-c2ccc(C=C3SC(=S)N(C4CCCC(C(=O)OCC(CO)CO)C4)C3=O)o2)cc1` (stereo not drawn) [Compound U5, 3-{5-[1-[5-(4-Methylsulfanyl-phenyl)-furan-2-yl]-methylidene]-4-oxo-2-thioxo-thiazolidin-3-yl}-cyclohexanecarboxylic acid 3-hydroxy-2-hydroxymethyl-propyl ester], under setting [1], the IC50 lay within 11 to 40 µM. For `O=C(O)c1ccc(F)c(N2C(=O)C(=Cc3ccccc3-c3ccccc3OCc3ccccc3Cl)SC2=S)c1` [Compound A197], under setting [2], the IC50 is below 10 µM. The same measure, in the same setting: the value for `O=C(O)c1ccc(F)c(N2C(=O)C(=Cc3ccc(-c4ccc(C(F)(F)F)cc4)o3)SC2=S)c1` [Compound A201] was below 10 µM. `CCc1ccccc1-c1ccc(C=C2SC(=S)N(Nc3ccccc3C(=O)O)C2=O)o1` [Compound D58, 2-{5-[1-[5-(2-ethyl-phenyl)-furan-2-yl]-methylidene]-4-oxo-2-thioxo-thiazolidin-3-ylamino}-benzoic acid] registered an IC50 (Dlat IC50 category) below 10 µM.

`O=C(O)CCCCCN1C(=O)C(=Cc2ccc(-c3cc(C(F)(F)F)ccc3Cl)o2)SC1=S` [Compound B20] registered a 50% inhibitory concentration (IC50) (Dlat IC50 category) below 10 µM. For the setting “Dlat IC50 category”, `CC(C)c1ccc(-c2ccc(C=C3SC(=S)N(C(Cc4ccc(O)c(O)c4)C(=O)O)C3=O)o2)cc1` (stereo not drawn) [Compound B68] showed a concentration for half-maximal inhibition (IC50) below 10 µM. On to `O=C(O)CCCN1C(=O)C(=Cc2ccc(-c3cccc(C(F)(F)F)c3)o2)SC1=S` [Compound B91], for which the IC50 (Dlat IC50 category) is below 10 µM. Consider `CC(C)Cc1ccc(-c2ccc(C=C3SC(=S)N(c4cccc(C(=O)O)c4)C3=O)o2)cc1` [Compound A64], for which the half-maximal inhibitory concentration (IC50) under setting [2] was below 10 µM. For the molecule `COc1ccc(C)cc1-c1ccc(C=C2SC(=S)N(C3CCC(C(=O)O)CC3)C2=O)o1` (stereo not drawn) [Compound C75, 4-{5-[5-(2-Methoxy-5-methyl-phenyl)-furan-2-ylmethylene]-4-oxo-2-thioxo-thiazolidin-3-yl}-cyclohexanecarboxylic acid], for the setting “Dlat IC50 category”, the half-maximal inhibitory concentration (IC50) lay within 11 to 40 µM.

For `CSc1ccc(-c2ccc(C=C3SC(=S)N(C4CCCC(C(=O)OCC(C)(CO)CO)C4)C3=O)o2)cc1` (stereo not drawn) [Compound U6, 3-{5-[1-[5-(4-Methylsulfanyl-phenyl)-furan-2-yl]-methylidene]-4-oxo-2-thioxo-thiazolidin-3-yl}-cyclohexanecarboxylic acid 3-hydroxy-2-hydroxymethyl-2-methyl-propyl ester], the IC50 under setting [1] lay within 41 to 80 µM. In turn, `O=C(O)C(Cc1ccccc1)N1C(=O)C(=Cc2ccc(-c3ccc(CSc4ccccc4)cc3)o2)SC1=S` (stereo not drawn) [Compound B76] had an IC50 (Dlat IC50 category) below 10 µM. As for `O=C(O)c1cccc(N2C(=O)C(=Cc3ccc(-c4ccc(O)cc4Cl)o3)SC2=S)c1` [Compound A124], under setting [2], the IC50 was below 10 µM. In turn, `CC(C)(C)c1ccc(O)c(-c2ccc(C=C3SC(=S)N(Nc4ccccc4C(=O)O)C3=O)o2)c1` [Compound D5, 2-{5-[1-[5-(5-tert-butyl-2-hydroxy-phenyl)-furan-2-yl]-methylidene]-4-oxo-2-thioxo-thiazolidin-3-ylamino}-benzoic acid] registered an IC50 (Dlat IC50 category) below 10 µM.

For the molecule `O=C(O)c1cc(N2C(=O)C(=Cc3ccc(-c4cccc(C(F)(F)F)c4)o3)SC2=S)ccc1Cl` [Compound A67], under setting [2], the IC50 is below 10 µM. Turning to `CC(C)Cc1ccc(-c2ccc(C=C3SC(=S)N(C(C(=O)O)c4ccccc4)C3=O)o2)cc1` (stereo not drawn) [Compound B78], the IC50 (Dlat IC50 category) is below 10 µM. In the case of `Cc1cc(Cl)ccc1-c1ccc(C=C2SC(=S)N(C3CCCC(C(=O)O)C3)C2=O)o1` (stereo not drawn) [Compound C20, 3-{5-[1-[5-(4-chloro-2-methyl-phenyl)-furan-2-yl]-methylidene]-4-oxo-2-thioxo-thiazolidin-3-yl}-cyclohexanecarboxylic acid], for the setting “Dlat IC50 category”, the half-maximal inhibitory concentration (IC50) is below 10 µM. In turn, `O=C(O)C(Cc1ccc(O)c(O)c1)N1C(=O)C(=Cc2ccc(-c3cccc(C(F)(F)F)c3)o2)SC1=S` (stereo not drawn) [Compound B55] came in with an IC50 (Dlat IC50 category) below 10 µM. As for `CC(=O)c1ccc(-c2ccc(C=C3SC(=S)N(c4cccc(C(=O)O)c4)C3=O)o2)cc1` [Compound A206], under setting [2], the IC50 was below 10 µM. For the molecule `COc1ccccc1-c1ccc(C=C2SC(=S)N(CC(=O)O)C2=O)o1` [Compound B88], where the note is “Dlat IC50 category”, the IC50 lay in the range of 11 to 40 µM. Same read-out and setting: then `CCCCOc1ccc(-c2ccc(C=C3SC(=S)N(Nc4ccccc4C(=O)O)C3=O)o2)cc1` [Compound D49, 2-{5-[1-[5-(4-butoxy-phenyl)-furan-2-yl]-methylidene]-4-oxo-2-thioxo-thiazolidin-3-ylamino}-benzoic acid], with below 10 µM. `O=C(O)C(c1ccccc1)N1C(=O)C(=Cc2cccc(-c3ccc(Cl)s3)n2)SC1=S` (stereo not drawn) [Compound P1] yielded an IC50 (Dlat IC50 category, Table 16, Compounds P1 to P2) below 10 µM. `O=C(O)c1cc(N2C(=O)C(=Cc3ccc(-c4ccccc4Cl)o3)SC2=S)ccc1Cl` [Compound A66]: under setting [2], the IC50 is below 10 µM. On the same count and under the same terms, then `O=C(O)c1cccc(N2C(=O)C(=Cc3ccc(-c4cccc(CO)c4)o3)SC2=S)c1` [Compound A209], with below 10 µM; and `O=C(O)c1ccc(F)c(N2C(=O)C(=Cc3ccc(-c4c(Cl)cccc4Cl)o3)SC2=S)c1` [Compound A106], with below 10 µM; and `Cc1ccc(-c2cccc(C=C3SC(=S)N(c4cc(C(=O)O)ccc4F)C3=O)c2)cc1` [Compound A243], with below 10 µM. In the case of `O=C(O)c1ccc(F)c(N2C(=O)C(=Cc3ccc(-c4ccccc4OCc4ccccc4)o3)SC2=S)c1` [Compound A180], under setting [2], the IC50 is below 10 µM. For `CC(C)(C)c1ccc(-c2ccc(C=C3SC(=S)N(CC(=O)O)C3=O)o2)cc1` [Compound B74], the IC50 (Dlat IC50 category) was below 10 µM. `N#Cc1c(F)cccc1-c1ccc(C=C2SC(=S)N(c3cncc(C(=O)O)c3)C2=O)o1` [Compound M4]: under “Dlat IC50 category, Table 13, Compounds M1 to M4”, the IC50 fell in the range of 11 to 40 µM.

Turning to `O=C(O)c1ccccc1NN1C(=O)C(=Cc2ccc(-c3ccccc3F)o2)SC1=S` [Compound D43, 2-{5-[1-[5-(2-fluoro-phenyl)-furan-2-yl]-methylidene]-4-oxo-2-thioxo-thiazolidin-3-ylamino}-benzoic acid], the IC50 (Dlat IC50 category) was below 10 µM.

As for `O=C(O)c1ccc(F)c(N2C(=O)C(=Cc3ccc(-c4ccccc4Oc4ccccc4)o3)SC2=S)c1` [Compound A194], the IC50 under setting [2] is below 10 µM. As to `O=C(O)C1CCCC(N2C(=O)C(=Cc3ccc(-c4ccc(Cl)cc4)o3)SC2=S)C1` (stereo not drawn) [Compound C56, 3-{5-[1-[5-(4-chloro-phenyl)-furan-2-yl]-methylidene]-4-oxo-2-thioxo-thiazolidin-3-yl}-cyclohexanecarboxylic acid], where the note is “Dlat IC50 category”, the IC50 was below 10 µM. Turning to `CC(C)(C)OC(=O)Nc1ccccc1-c1ccc(C=C2SC(=S)N(c3cc(C(=O)O)ccc3F)C2=O)o1` [Compound A164], under setting [2], the IC50 lay in the range of 11 to 40 µM. Molecule `O=C(O)c1cccc(CCN2C(=O)C(=Cc3ccc(-c4cccc(C(F)(F)F)c4)o3)SC2=S)c1` [Compound G2] registered a 50% inhibitory concentration (IC50) (Dlat IC50 category, Table 7, Compounds G1 to G4) below 10 µM. Turning to `O=C(O)c1ccc(F)c(N2C(=O)C(=Cc3ccc(-c4cccc(CO)c4)o3)SC2=S)c1` [Compound A210], the IC50 under setting [2] was below 10 µM. Turning to `O=C(O)c1ccccc1NN1C(=O)C(=Cc2ccc(-c3cccc([N+](=O)[O-])c3)o2)SC1=S` [Compound D4, 2-{5-[1-[5-(3-nitro-phenyl)-furan-2-yl]-methylidene]-4-oxo-2-thioxo-thiazolidin-3-ylamino}-benzoic acid], the IC50 (Dlat IC50 category) was below 10 µM. Consider `O=C(O)c1cccc(N2C(=O)C(=Cc3ccc(-c4ccccc4Br)o3)SC2=S)c1` [Compound A132], for which the IC50 under setting [2] fell in the range of 11 to 40 µM. With `O=C(O)c1cccc(N2C(=O)C(=Cc3ccc(-c4ccc(CSc5ccccc5)cc4)o3)SC2=S)c1` [Compound A53], under setting [2], the IC50 lay in the range of 11 to 40 µM. The molecule `O=C(O)CN1C(=O)C(=Cc2ccc(-c3ccc(Cl)cc3Cl)o2)SC1=S` [Compound B43] showed an IC50 (Dlat IC50 category) below 10 µM. The same measure, in the same setting: the value for `O=C(O)CCCCCN1C(=O)C(=Cc2ccc(-c3ccc(Cl)cc3)o2)SC1=S` [Compound B13] was below 10 µM; that for `Cc1ccc(-c2ccc(C=C3SC(=S)N(C4CCC(C(=O)O)CC4)C3=O)cc2)cc1` (stereo not drawn) [Compound C73, 4-{5-[1-(4′-methyl-biphenyl-4-yl)-methylidene]-4-oxo-2-thioxo-thiazolidin-3-yl}-cyclohexanecarboxylic acid] was below 10 µM. `COc1ccc(C(=O)O)cc1N1C(=O)C(=Cc2ccc(Cc3ccccc3Cl)o2)SC1=S` [Compound N2] showed an IC50 (Dlat IC50 category, Table 14, Compounds N1 to N3) of 11 to 40 µM. `COc1ccc(-c2ccc(C=C3SC(=S)N(C4CCCC(C(=O)O)C4)C3=O)o2)cc1` (stereo not drawn) [Compound C15, 3-{5-[1-[5-(4-methoxy-phenyl)-furan-2-yl]-methylidene]-4-oxo-2-thioxo-thiazolidin-3-yl}-cyclohexanecarboxylic acid]: where the note is “Dlat IC50 category”, the IC50 was below 10 µM.

As to `CCOc1ccc(-c2ccc(C=C3SC(=S)N(c4cc(C(=O)O)ccc4F)C3=O)o2)cc1` [Compound A218], the IC50 under setting [2] is below 10 µM. On to `CC(C)(c1ccccc1)c1ccc(-c2ccc(C=C3SC(=S)N(c4cc(C(=O)O)ccc4Cl)C3=O)o2)cc1` [Compound A96], for which the IC50 under setting [2] is below 10 µM.
